IC50 data for ten compounds are collected here from the Kinase Knowledgebase extract (Sharma et al. 2016).

The structures appear in SMILES notation.

In this assay the target is EGFR (human) (UniProt P00533).
Sequence of EGFR (human) (P00533 whole entry, looked up): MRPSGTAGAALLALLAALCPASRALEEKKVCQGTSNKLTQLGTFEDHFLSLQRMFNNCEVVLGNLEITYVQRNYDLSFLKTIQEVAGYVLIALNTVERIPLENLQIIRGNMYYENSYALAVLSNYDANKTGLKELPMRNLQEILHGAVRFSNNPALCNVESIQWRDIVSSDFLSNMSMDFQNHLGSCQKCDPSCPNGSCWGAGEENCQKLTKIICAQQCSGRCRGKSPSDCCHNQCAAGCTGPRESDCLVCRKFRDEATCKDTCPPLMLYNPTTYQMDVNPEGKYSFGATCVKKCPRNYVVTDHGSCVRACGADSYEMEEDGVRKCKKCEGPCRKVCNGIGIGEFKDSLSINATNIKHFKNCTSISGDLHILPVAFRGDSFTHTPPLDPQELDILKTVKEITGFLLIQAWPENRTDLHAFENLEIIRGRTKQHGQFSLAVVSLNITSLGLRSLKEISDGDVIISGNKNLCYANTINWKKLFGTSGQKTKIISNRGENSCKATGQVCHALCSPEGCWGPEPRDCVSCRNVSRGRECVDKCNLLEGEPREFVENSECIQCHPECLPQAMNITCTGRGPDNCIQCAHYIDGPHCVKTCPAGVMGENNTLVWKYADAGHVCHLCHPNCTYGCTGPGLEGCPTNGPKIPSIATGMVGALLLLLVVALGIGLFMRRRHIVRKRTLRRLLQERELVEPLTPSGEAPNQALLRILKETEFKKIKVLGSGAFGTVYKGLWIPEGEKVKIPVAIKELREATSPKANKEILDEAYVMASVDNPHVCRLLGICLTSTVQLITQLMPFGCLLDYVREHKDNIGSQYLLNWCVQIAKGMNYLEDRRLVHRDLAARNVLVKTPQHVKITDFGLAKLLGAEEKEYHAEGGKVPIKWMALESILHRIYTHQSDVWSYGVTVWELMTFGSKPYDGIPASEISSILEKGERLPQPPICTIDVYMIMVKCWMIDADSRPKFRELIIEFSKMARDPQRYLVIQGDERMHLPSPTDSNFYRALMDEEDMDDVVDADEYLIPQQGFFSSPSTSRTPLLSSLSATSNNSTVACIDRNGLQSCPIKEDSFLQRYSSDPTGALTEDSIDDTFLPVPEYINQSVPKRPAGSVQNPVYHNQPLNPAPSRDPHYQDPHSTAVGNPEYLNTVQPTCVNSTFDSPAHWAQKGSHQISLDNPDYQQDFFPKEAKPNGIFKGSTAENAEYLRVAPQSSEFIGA
As for `NC(=O)C1CCN(Cc2ccc(-c3cc4nccc(Nc5ccc6[nH]ccc6c5)c4s3)cc2)CC1`, the half-maximal inhibitory concentration (IC50) – broadly, the point on the concentration scale where inhibition reaches its midpoint – was found to be 7 nM. In other words, the single-digit nanomolar range.
In the case of `c1csc(-c2cc3nccc(Nc4ccc5[nH]ccc5c4)c3s2)c1` it was 39 nM.
In the case of `NC(=O)C1CCN(Cc2ccc(-c3cc4ncnc(Nc5ccc6[nH]ccc6c5)c4s3)cc2)CC1` it was 1 nM; in that of `CC(=O)NCCNCc1ccc(-c2cc3nccc(Nc4ccc5[nH]ccc5c4)c3s2)cc1`, 5 nM; in that of `c1ccc(-c2cc3nccc(Nc4ccc5[nH]ccc5c4)c3s2)cc1`, 68 nM.
To `c1cn(CCCc2ccc(-c3cc4nccc(Nc5ccc6[nH]ccc6c5)c4s3)cc2)cn1` belongs 5 nM; to `c1cn(CCCc2ccc(-c3cc4ncnc(Nc5ccc6[nH]ccc6c5)c4s3)cc2)cn1`, 1 nM.
In the case of `CC(C)(CO)NCc1ccc(-c2cc3nccc(Nc4ccc5[nH]ccc5c4)c3s2)cc1`, the IC50 is 8 nM.
To `CC(=O)NCCNCc1ccc(-c2cc3ncnc(Nc4ccc5[nH]ccc5c4)c3s2)cc1` belongs 2 nM.
The compound `c1nc(Nc2ccc3[nH]ccc3c2)c2sc(-c3ccc(NCCN4CCCC4)cc3)cc2n1` yielded an IC50 of 1 nM.
